Results taken from patent US8993595B2, “Macrocyclic serine protease inhibitors” (priority 2009, dated 2015).
Read-outs that look alike come from different tables or passages of the source.

Assays:
[1] = test system: central nervous, renal, and gastrointestinal systems of mice; parameters: species or system CD-1 mouse; conditions: mouse, in vivo
Text: (§1) One in vitro GLP safety pharmacology study evaluated the effects of compound 52 on hERG channel currents in voltage-clamped human embryonic kidney cells (HEK293) stably expressing the human ether-à-go-go-related gene (hERG) channel. Four in vivo GLP safety pharmacology studies evaluated the potential effects of the compound on the cardiovascular and respiratory systems in the cynomolgus monkey and on the central nervous, renal, and gastrointestinal systems in the CD-1 mouse at single oral doses up to 250 mg/kg of compound 52.

[2] = test system: A-1a cell line (genotype 1a replicon selected with 10 nM, D168A); assay: Extent of resistance after selection, A-1a; type: cell-based, HCV; conditions: selecting conc. 10 nM
Experimental: (§2) Replicon cells (genotype 1a or 1b) were treated with various concentrations of compound 52 in the presence of G418. Treatment-emergent genotypic changes were identified by population sequencing of NS3 (both protease and helicase regions). The activity of compound 52 and other compounds was evaluated by NS5A western blot after selection or luciferase assay during and after selection.

hERG channel = target: T1, hERG channel (Homo sapiens, UniProt Q12809); assay: hERG channel currents in voltage-clamped HEK293 cells; type: cell-based
T1 construct: expressed in transfected cells; host or cells: HEK293
Text: as §1

[3] = Pharmacokinetics in human volunteers, single dose cohorts
[4] = test system: H1a-luc cell line (genotype 1a replicon, unselected); assay: Extent of resistance after selection, H1a-luc; type: cell-based, HCV; conditions: selecting conc. 0 nM
Experimental: as §2

clinical = conditions: human, in vivo; for Cmax / Tmax: 400 mg per day; for half-life: T1/2, 400 mg per day
human CYP450 3A4 = target: T2, human CYP450 3A4 (Homo sapiens, UniProt P08684); assay: CYP450 inhibition assay, 3A4; type: in vitro ADME
T2 construct: purchased BD Bioscience
Experimental: (§3) Compound 52 was incubated with human CYP450 cDNA-expressed isoenzymes according to the protocol (BD Bioscience). For CYP2C9, a luminogenic substrate was used with the P450-Glo™ kit. In addition, the effect of the compound on CYP2C9-mediated diclofenac metabolism was measured by LC-UV. The potential inhibitory effect of the compound on human UGT1A1 was examined using human liver microsomes and bilirubin as substrate. The metabolites (mono- and di-glucuronidated bilirubin) were measured by LC-UV.

[5] = 400 mg per day
[6] = human plasma
1b replicon = assay: HCV replicon luciferase assay, genotype 1b; type: cell-based
Experimental: Compound 52 was tested against genotypes 1a, 1b, and 2a in an HCV replicon assay as described in Example 2. Replicon cells (genotype 1a or 1b) were seeded onto 96-well plates, cultured for three days in the presence of the compound, and subject to a luciferase assay.
Drug solutions were made up freshly in Huh-7 media as 2× stocks. Ten additional 5-fold dilutions were prepared from these stocks in DMEM without G418. […] Cells were then incubated at 37° C./5% CO2. […] For this, media was removed from the plates via gentle tapping. Fifty microliters of ONE-glo luciferase assay reagent was added to each well. […] The EC50 values were calculated from dose response curves from the resulting best-fit equations determined by Microsoft Excel and XLfit 4.1 software.

human CYP450 1A2 = target: T3, human CYP450 1A2 (Homo sapiens, UniProt P05177); assay: CYP450 inhibition assay, 1A2; type: in vitro ADME
T3 construct: purchased BD Bioscience
Experimental: as §3

[7] = MTS Cytotoxicity Assay in HPC cells; type: cell-based; conditions: human; HPC cells (2a virus line)
Experimental: HPC cells were infected with JFH-1 (genotype 2a) and treated with the compound for 4 days (virus inoculum was removed after 16 hrs). Remaining virus was measured by an anti-HCV core ELISA. Compound cytotoxicity was also measured in parallel using a colorimetric proliferation assay as described in Example 5.
The cytotoxicity assay measures the viability of cells after treatment with a test compound for 5 days. The assay readout is the bioreduction of the yellow MTS tetrazolium compound to a purple formazan product. This conversion is mediated by NADPH or NADH and is directly proportional to the number of live cells in a culture.
Ninety-six-well Corning Costar plates were seeded with HPC cells at a density of 3.0×10^3 cells per well in 50 μL of Huh-7 media. Compound stock solutions were made up freshly in Huh-7 media as 2× stocks. Seven additional 3-fold drug dilutions were prepared from the 2× stocks in Huh-7 media for a total of 8 dilutions.
At least 4 hours after HPC cells were seeded, 50 μL of each drug dilution was added to the cultures. […]
After 5 days of treatment, the CellTiter 96® Aqueous One Solution cell proliferation assay was performed by adding 20 μL of MTS solution to each well. […] Plates were read at A490 nm in a Victor^3 V 1420 multilabel counter (Perkin Elmer) and CC50 concentrations were determined using Microsoft Excel and XLfit 4.1 software. […]

[8] = monkey plasma

T1 sequence (Q12809 whole entry): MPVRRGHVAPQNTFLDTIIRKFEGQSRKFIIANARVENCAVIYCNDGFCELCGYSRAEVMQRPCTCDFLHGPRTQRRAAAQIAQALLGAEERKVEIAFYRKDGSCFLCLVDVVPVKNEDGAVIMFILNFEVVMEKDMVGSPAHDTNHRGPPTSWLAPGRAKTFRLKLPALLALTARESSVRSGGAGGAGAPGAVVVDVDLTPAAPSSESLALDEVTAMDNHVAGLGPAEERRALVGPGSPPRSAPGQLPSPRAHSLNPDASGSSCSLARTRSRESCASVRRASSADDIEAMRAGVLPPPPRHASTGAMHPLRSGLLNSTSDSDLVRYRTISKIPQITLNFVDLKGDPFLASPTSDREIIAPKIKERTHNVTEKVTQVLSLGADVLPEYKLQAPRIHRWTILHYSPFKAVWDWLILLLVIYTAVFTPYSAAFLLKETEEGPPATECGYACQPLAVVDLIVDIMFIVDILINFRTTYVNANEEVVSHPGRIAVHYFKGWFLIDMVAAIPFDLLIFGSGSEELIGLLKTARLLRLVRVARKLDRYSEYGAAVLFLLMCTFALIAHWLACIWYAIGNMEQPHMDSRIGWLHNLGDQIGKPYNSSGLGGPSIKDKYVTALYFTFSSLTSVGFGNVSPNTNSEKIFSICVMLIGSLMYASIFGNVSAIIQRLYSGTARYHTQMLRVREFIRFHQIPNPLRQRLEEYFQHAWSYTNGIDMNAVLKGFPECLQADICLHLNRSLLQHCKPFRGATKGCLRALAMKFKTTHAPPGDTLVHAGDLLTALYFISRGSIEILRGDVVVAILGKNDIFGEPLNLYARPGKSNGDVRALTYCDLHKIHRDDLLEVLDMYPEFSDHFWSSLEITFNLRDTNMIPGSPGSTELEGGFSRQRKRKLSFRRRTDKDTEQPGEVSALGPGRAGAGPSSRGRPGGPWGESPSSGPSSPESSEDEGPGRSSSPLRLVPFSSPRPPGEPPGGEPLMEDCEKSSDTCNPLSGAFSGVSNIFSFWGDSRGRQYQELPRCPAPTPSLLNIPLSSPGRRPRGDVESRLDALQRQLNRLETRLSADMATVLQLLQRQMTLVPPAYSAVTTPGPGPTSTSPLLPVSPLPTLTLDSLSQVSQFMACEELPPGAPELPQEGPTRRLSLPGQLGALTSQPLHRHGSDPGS
T2 sequence (P08684 whole entry): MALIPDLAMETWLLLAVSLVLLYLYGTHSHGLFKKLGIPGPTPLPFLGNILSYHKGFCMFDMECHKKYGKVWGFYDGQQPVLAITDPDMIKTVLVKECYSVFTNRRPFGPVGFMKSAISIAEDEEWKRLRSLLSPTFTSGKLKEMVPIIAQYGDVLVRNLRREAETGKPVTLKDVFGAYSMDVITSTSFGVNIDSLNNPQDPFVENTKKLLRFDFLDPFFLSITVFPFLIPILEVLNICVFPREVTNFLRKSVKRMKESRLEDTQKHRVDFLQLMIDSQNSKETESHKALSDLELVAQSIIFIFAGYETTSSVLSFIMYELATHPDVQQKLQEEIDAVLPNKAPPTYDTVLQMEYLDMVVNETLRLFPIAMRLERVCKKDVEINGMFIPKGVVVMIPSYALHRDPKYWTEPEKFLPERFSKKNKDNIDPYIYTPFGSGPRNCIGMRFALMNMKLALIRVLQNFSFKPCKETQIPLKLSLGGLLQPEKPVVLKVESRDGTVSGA
T3 sequence (P05177 whole entry): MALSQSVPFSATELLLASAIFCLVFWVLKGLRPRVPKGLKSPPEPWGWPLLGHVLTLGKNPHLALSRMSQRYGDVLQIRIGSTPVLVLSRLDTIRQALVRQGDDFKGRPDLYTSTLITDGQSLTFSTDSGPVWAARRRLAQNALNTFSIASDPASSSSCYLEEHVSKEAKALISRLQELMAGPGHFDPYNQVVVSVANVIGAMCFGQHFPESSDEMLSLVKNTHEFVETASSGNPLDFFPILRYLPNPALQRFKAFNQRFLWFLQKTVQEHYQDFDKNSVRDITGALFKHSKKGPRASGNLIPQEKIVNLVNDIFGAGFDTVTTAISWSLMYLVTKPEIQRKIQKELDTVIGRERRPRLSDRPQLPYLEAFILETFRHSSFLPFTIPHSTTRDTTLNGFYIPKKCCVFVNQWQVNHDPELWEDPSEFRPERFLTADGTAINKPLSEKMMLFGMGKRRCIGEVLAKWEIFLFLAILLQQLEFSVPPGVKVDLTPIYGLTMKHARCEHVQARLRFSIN

COc1ccc2c(O[C@H]3CCN4C(=O)N(C)CCCC/C=C\[C@@H]5C[C@@]5(C(=O)NS(=O)(=O)C5(C)CC5)NC(=O)[C@@H]4C3)cc(-c3nc(C(F)(F)F)cs3)nc2c1C [Compound 52, 1-methyl-cyclopropanesulfonic acid{(Z)-(1S,4R,6S,18S)-18-[7-methoxy-8-methyl-2-(4-trifluoromethyl-thiazol-2-yl)-quinolin-4-yloxy]-13-methyl-2,14-dioxo-3,13,15-triaza-tricyclo[13.4.0.0*4,6*]nonadec-7-ene-4-carbonyl}amide]
effects on the central nervous system, renal function, or gastrointestinal motility [1]: no effects
Fold-Change [2]: 589 ± 442
effect on cardiac hERG potassium channel current (hERG channel): did not affect
total and trough exposure, HCV-infected patients compared to healthy volunteers ([3]; 2 HCV-infected patients, comparable Cmax): 2 fold
enhancement of overall plasma exposure by food ([3]; food compared to fasting state): approximately 2 fold
C24 hr ([3]; single dose 100 mg, human volunteers): 19 ± 9 ng/mL
C24 hr ([3]; single dose 200 mg, HCV patients, N = 2): 131 ng/mL
C24 hr ([3]; single dose 200 mg, human volunteers): 53 ± 26 ng/mL
C24 hr ([3]; single dose 400 mg Fasted, human volunteers): 54 ± 28 ng/mL
C24 hr ([3]; single dose 400 mg, human volunteers): 89 ± 16 ng/mL
Fold-Change [4]: 1
Cmax (clinical; PK Day 1): 1150 ± 381 ng/mL
Cmax (clinical; PK Day 3): 1370 ± 345 ng/mL
half-life (clinical; PK Day 1): 12 ± 2 h
half-life (clinical; PK Day 3): 31 ± 8 h
Tmax (clinical; PK Day 1): 3 h
Tmax (clinical; PK Day 3): 3.5 h
IC50 (human CYP450 3A4): ≥ 10 µM
C24 hr ([5]; PK Day 1): 117 ± 53 ng/mL
C24 hr ([5]; PK Day 2): 165 ± 87 ng/mL
C24 hr ([5]; PK Day 3): 197 ± 112 ng/mL
protein bound in plasma [6]: 99.6%
Selectivity Index (1b replicon): 50,400
EC50 (1b replicon; Hepatitis C virus, 72 h, three days, luciferase assay): 0.0005 ± 0.0001 µM
IC50 (human CYP450 1A2): ≥ 10 µM
CC50 at 5 days [7]: 11.3 ± 0.1 µM
protein bound in plasma [8]: 99.9%
